Test results reported in article PMC3849192, “A Simple Method for Assessing Free Brain/Free Plasma Ratios Using an In Vitro Model of the Blood Brain Barrier” (PLoS ONE, 2013).
Like-named read-outs stand apart in the source and are kept apart here.

Assays:
[1] = Fraction unbound brain (fu,br), brain homogenate equilibrium dialysis
Experimental: The degree of brain binding was assessed by equilibrium dialysis. Brain homogenate (10%) was spiked with test compound at 1 µM in triplicate. […] The plate was then placed in a shaker/incubator to equilibrate for 18 hrs at 37°C. […] After the addition of 50 µl of buffer to the brain homogenate samples, 150 µl of acetonitrile was added to each sample. Finally, 50 µl of water was added to all buffer and brain homogenate samples. The plates were centrifuged and the supernatant analyzed by LC-MS/MS.

[2] = Fraction unbound brain (fu,br), brain slice method
Experimental: Rats (male Sprague-Dawley) were decapitated under isoflurane anesthesia and the brains were removed carefully and immersed in ice-cold oxygenated physiological buffer at pH7.4. A 6 mm coronal section was cut with a razor and mounted with cyanoacrylate glue onto the tray of the microslicer (DTK-Zero 1 Microslicer, Dosak) after which six to eight 300 µm coronal slices from striatal areas were prepared. […] The compounds were dissolved at 1 µM in the buffer and the solution was incubated with the slice for 5 h.
After 5 h, the brain slices were weighed and homogenized in 9 volumes (w/v) of ECF buffer with a sonicator (SONICS VCX 500 and VCX 130). The slice homogenates in ECF buffer were stored at −20°C prior to analysis. The concentrations of the test compound in the brain slice homogenate and in the ECF buffer was determined by LC-MS/MS.
The unbound volume of distribution Vu,brain, or free fraction fu,brain was calculated according to the following equations: [drawing 1] [drawing 2] where Cslice, CECF and V0 are amount of drug in the slice, the drug concentration in the ECF (representing the drug concentration in the brain ECF, i.e. the free concentration), and the water adhesion of the brain slice. V0 has been estimated using ^14C -inulin in a separate experiment in which brain slices were incubated for 1, 2, and 4 min. V0 was obtained from brain slice uptake – inulin time profile (apparent zero-time intercept).

[3] = system: in vitro BBB model (co-culture of bovine brain capillary endothelial cells and rat glial cells); assay: In vitro BBB co-culture model, Cu,br/Cu,pl ratio
Experimental: Figure 1 Schematic diagram of the experimental protocol. After 12 days of coculture in cell culture medium, both compartments of the in vitro BBB model consisting of a coculture of brain capillary endothlial cells and rat primary glial cells were filled with Hepes-buffered Ringer’s solution and the compounds dissolved at 2 µM were added in the luminal compartment (i.e donor). The presence of glial cells in the abluminal compartment was used to reproduce the non specific binding to brain tisssue within the brain prenchyma in vivo. After 1 hour, aliquots were taken from both compartments. In vitro Cu,br/Cu,pl at 1 h were calculated by dividing the concentration in the abluminal compartment (∼Cu,br) by the concentration in the luminal compartment (∼Cu,pl) at 1 h. The experimental data at 1 h were computed using the blue-norna steady-state calculator to generate the in vitro steady-state Cu,br/Cu,pl.
One hour after the addition of compounds dissolved at 2 µM in the luminal (i.e upper) compartment, aliquots were taken from both compartments previously filled with Hepes-buffered Ringer’s solution at the beginning of the experiment. […] The concentrations in both compartments of the in vitro assay after 1 h were computed using […] blue-norna.com to generate the in vitro steady-state Cu,br/Cu,pl.
The method of Dehouck et al. was used with minor modifications (Fig. 1). Bovine brain endothelial cells isolated from capillary fragments were cocultured with primary mixed glial cells from newborn Sprague–Dawley rats. The glial cells were isolated according to the method of Booher and Sensenbrenner and cultured for 3 weeks, plated on the bottom of cell culture clusters containing six wells each. The endothelial cells were seeded onto collagen-coated polycarbonate cell culture inserts (4.7 cm^2) (Corning Incorp. NY, USA), which were placed in the wells containing glial cells. The medium used for the coculture was Dulbecco’s modified Eagle’s medium supplemented with 10% calf serum, 10% horse serum, 2 mmol/L glutamine, 50 mg/L gentamicin and 1 µg/L basic fibroblast growth factor (Sigma). The medium was changed every second day. Experiments were usually initiated after 12 days of co-culture.
To monitor the integrity of the endothelial cell monolayer, the marker molecule [^14C] sucrose was added to the solution at a concentration of 0.05 µCi/ml. At the start of the transport experiments, buffered Ringer’s solution (pH = 7.4) was added to wells with glial cells. Inserts with brain endothelial cells were placed in these wells and drug solutions at 2 µM were added to the donor compartment. The plates were incubated for 1 h in a polymix shaker at 37°C with a low shaking velocity. Aliquots were taken from the donor compartment in the beginning and at the end of the experiments. The receiver compartments were sampled at the end of the experiments.
The amount of radiotracer in the abluminal compartment was measured in a liquid scintillation analyser (Packard Instrument Company, Meriden, USA). […] The concentrations of the test compound in all samples were analysed by MS/MS.
The mean free brain/plasma ratios were calculated from three individual experiments. One hour ratios were calculated by dividing the drug concentration in the receiver compartment by the free drug concentration in the donor compartment after 1 h. The experimental data at one hour (i.e concentration in both compartment at the beginning of the experiment and after 1 h) were computed using the blue-norna® steady-state calculator (www.blue-norna.com) to predict the in vivo steady-state Cu,br/Cu,pl ratios. For further details on this calculation method see file S1.
The in vivo steady-state Cu,br/Cu,pl were predicted from the in vitro experimental data collected after one hour according to the following equation: […]
Cdonor, t and Creceiver, t are the concentration of drug in the donor and receiver chambers at time t.

[4] = brain homogenate (10%), 1 µM, equilibrium dialysis 18 hrs at 37°C
[5] = rat brain slices 300 µm, 1 µM, 5 h incubation
[6] = 2 µM in luminal compartment, abluminal/luminal concentration at 1 h
[7] = steady-state ratio computed from 1 h data with the blue-norna steady-state calculator

| Compound | fubrain (homog.) Mean [1, 4] | fubrain (slice) Mean [2, 5] | In vitro Cu,br/Cu,pl Mean 1 h [3, 6] | In vitro Cu,br/Cu,pl Mean steady-state [3, 7] | fubrain (homog.) Mean ([1]; 18 h, 1 µM) | fubrain (slice) Mean ([2]; male, Sprague-Dawley, rat, 5 h, 1 µM) | In vitro Cu,br/Cu,pl Mean steady-state ([3]; bovine / rat, 2 µM, pH 7.4) | In vitro Cu,br/Cu,pl Mean 1 h ([3]; bovine / rat, 1 h, 2 µM, pH 7.4) | fubrain (homog.) Mean [1] | fubrain (slice) Mean ([2]; male, Sprague-Dawley, rat) |
| --- | --- | --- | --- | --- | --- | --- | --- | --- | --- | --- |
| CN(C)CCC=C1c2ccccc2CCc2ccccc21 [Amitriptyline] | 0.0090 | 0.0060 | 0.07 | 0.59 |  |  |  |  |  |  |
| NCC(CC(=O)O)c1ccc(Cl)cc1 (stereo not drawn) [Baclofen] | 0.5000 | 0.5800 | 0.05 | 0.06 |  |  |  |  |  |  |
| Cn1c(=O)c2c(ncn2C)n(C)c1=O [Caffeine] | 0.5000 | 0.7100 | 0.34 | 0.55 |  |  |  |  |  |  |
| NC(=O)N1c2ccccc2C=Cc2ccccc21 [Carbamazepine] | 0.1160 | 0.2000 | 0.25 | 0.31 |  |  |  |  |  |  |
| CCCC(C)(COC(N)=O)COC(=O)NC(C)C (stereo not drawn) [Carisoprodol] | 0.2020 | 0.5600 | 0.31 | 0.61 |  |  |  |  |  |  |
| CN(C)CCCN1c2ccccc2Sc2ccc(Cl)cc21 [Chlorpromazine] | 0.0008 | 0.0032 | 0.06 | 0.69 |  |  |  |  |  |  |
| CNCCC(Oc1ccc(C(F)(F)F)cc1)c1ccccc1 (stereo not drawn) [Fluoxetine] | 0.0023 | 0.0027 | 0.10 | 0.96 |  |  |  |  |  |  |
| NCC1(CC(=O)O)CCCCC1 [Gabapentin] | 0.7820 | 0.2400 | 0.06 | 0.14 |  |  |  |  |  |  |
| O=C(CCCN1CCC(O)(c2ccc(Cl)cc2)CC1)c1ccc(F)cc1 [Haloperidol] | 0.0071 | 0.0140 | 0.09 | 0.70 |  |  |  |  |  |  |
| OCCOCCN1CCN(C(c2ccccc2)c2ccc(Cl)cc2)CC1 (stereo not drawn) [Hydroxyzine] | 0.0100 | 0.0170 | 0.05 | 0.47 |  |  |  |  |  |  |
| CC(C)(C)NC(=O)[C@@H]1CN(Cc2cccnc2)CCN1C[C@@H](O)C[C@@H](Cc1ccccc1)C(=O)N[C@H]1c2ccccc2C[C@H]1O [Indinavir] |  |  | 0.04 | 0.10 |  |  |  |  |  |  |
| Nc1nnc(-c2cccc(Cl)c2Cl)c(N)n1 [Lamotrigine] | 0.2000 | 0.3600 | 0.27 | 0.43 |  |  |  |  |  |  |
| CNCCC=C1c2ccccc2CCc2ccccc21 [Nortriptyline] | 0.0046 | 0.0045 | 0.08 | 0.81 |  |  |  |  |  |  |
| O=C1NC(=O)C(c2ccccc2)(c2ccccc2)N1 [Phenytoin] | 0.0800 | 0.1200 | 0.22 | 0.44 |  |  |  |  |  |  |
| CCN1CCCC1CNC(=O)c1cc(S(N)(=O)=O)ccc1OC (stereo not drawn) [Sulpiride] | 0.6000 | 0.4400 | 0.05 | 0.09 |  |  |  |  |  |  |
| CNS(=O)(=O)Cc1ccc2[nH]cc(CCN(C)C)c2c1 [Sumatriptan] | 0.4000 | 0.6100 | 0.05 | 0.05 |  |  |  |  |  |  |
| Nc1c2c(nc3ccccc13)CCCC2 [Tacrine] |  |  |  |  | 0.1200 | 0.1200 | 0.58 | 0.23 |  |  |
| CSc1ccc2c(c1)N(CCC1CCCCN1C)c1ccccc1S2 (stereo not drawn) [Thioridazine] | 0.0010 | 0.0017 | 0.08 | 0.68 |  |  |  |  |  |  |
| CN1CCN(CCCN2c3ccccc3Sc3ccc(C(F)(F)F)cc32)CC1 [Trifluoperazine] | 0.0007 | 0.0007 | 0.09 | 0.71 |  |  |  |  |  |  |
| Cc1ccc(-c2nc3ccc(C)cn3c2CC(=O)N(C)C)cc1 [Zolpidem] |  |  | 0.25 | 0.49 |  |  |  |  | 0.2000 | 0.3500 |
